pIC50: −log10 of the molar value.
Target: bovine folate binding protein (bFBP) (Bos taurus, UniProt P02702)
Assay: competitive binding ELISA, displacement of folic acid-HRP, chemiluminescence

Chain of bovine folate binding protein (bFBP) (P02702 20-234): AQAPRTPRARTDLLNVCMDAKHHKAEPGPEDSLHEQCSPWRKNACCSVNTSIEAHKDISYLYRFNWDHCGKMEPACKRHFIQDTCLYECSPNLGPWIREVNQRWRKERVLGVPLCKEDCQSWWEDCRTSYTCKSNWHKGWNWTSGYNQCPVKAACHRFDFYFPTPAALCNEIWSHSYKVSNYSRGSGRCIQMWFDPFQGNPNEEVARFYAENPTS

`CCCC(CCC)C(=O)O` [Valproic acid] was tested, and the pIC50 was 0.57.

Reference: publication PMC4396868 (Birth defects research. Part A, Clinical and molecular …, 2014)
